Patent publication US20260200939A1, “MOLECULAR GLUE DEGRADER COMPOUNDS AND USES THEREOF” (Novartis AG, priority 2022, published 2026)

How the values were obtained:
BRD4 short = target: T1, BRD4 short (Homo sapiens, UniProt O60885); assay: BRD4 (short) degradation assay, Western blotting; assay type: cell-based
T1 construct: endogenous in cells; host or cells: HEK293T
Method in brief: (§1)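 Cell lines were grown at 37° C with 5% CO2 (HEK293T and C33A in DMEM, A549 in F-12K, 22RV1, LNCaP and Mino in RPMI-1640, K562 and MV-4-11 in IMDM, all with 10% FBS). Lysates were BCA-normalized, then SDS/PAGE Western blots were probed with target-specific antibodies and read by IR680/IR800 fluorescent secondaries on Li-Cor.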

BRD4 long = target: T2, BRD4 long (Homo sapiens, UniProt O60885); assay: BRD4 (long) degradation assay, Western blotting; assay type: cell-based
T2 construct: endogenous in cells; host or cells: HEK293T
Method in brief: as §1

[1] = first value of cell, range with lower bound in nM and upper bound in μM
[2] = second value of cell (long/short)
[3] = first value of cell (long/short)

DC50 (BRD4 short; second value of cell, range with lower bound in nM and upper bound in μM) [nM]	DC50 (BRD4 long; [1]) [nM]	DC50 (BRD4 short; [2]) [nM]	DC50 (BRD4 long; [3]) [nM]	Structure (SMILES)
100 to 1000	100 to 1000	–	–	Cc1sc2c(c1C)C(c1ccc(Cl)cc1)=N[C@@H](CC(=O)N[C@H]1C[C@H](NC(=O)/C=C/C(=O)c3ccc(Cl)cc3Cl)C1)c1nnc(C)n1-2 [Compound 281, (E)-N-((1S,3r)-3-(2-((S)-4-(4-chlorophenyl)-2,3,9-trimethyl-6H-thieno[3,2-f][1,2,4]triazolo[4,3-a][1,4]diazepin-6-yl)acetamido)cyclobutyl)-4-(2,4-dichlorophenyl)-4-oxobut-2-enamide]
–	–	1 to 10	1 to 10	COc1ccc(C(=O)/C=C/C(=O)NC2CC(NC(=O)C[C@@H]3N=C(c4ccc(Cl)cc4)c4c(sc(C)c4C)-n4c(C)nnc43)C2)cc1 (stereo partly shown) [Compound 222]
–	–	180	90	COc1ccc(C(=O)/C=C/C(=O)N[C@H]2C[C@H](NC(=O)C[C@@H]3N=C(c4ccc(Cl)cc4)c4c(sc(C)c4C)-n4c(C)nnc43)C2)c(Cl)c1 [Compound 241, (E)-4-(2-chloro-4-methoxyphenyl)-N-((1S,3r)-3-(2-((S)-4-(4-chlorophenyl)-2,3,9-trimethyl-6H-thieno[3,2-f][1,2,4]triazolo[4,3-a][1,4]diazepin-6-yl)acetamido)cyclobutyl)-4-oxobut-2-enamide]
–	–	10 to 100	10 to 100	COc1ccc(C(=O)/C=C/C(=O)N2CC3CCC(C2)N(C(=O)C[C@@H]2N=C(c4ccc(Cl)cc4)c4c(sc(C)c4C)-n4c(C)nnc42)C3)cc1 (stereo partly drawn) [Compound 228, (E)-1-(6-(2-((S)-4-(4-chlorophenyl)-2,3,9-trimethyl-6H-thieno[3,2-f][1,2,4]triazolo[4,3-a][1,4]diazepin-6-yl)acetyl)-3,6-diazabicyclo[3.2.2]nonan-3-yl)-4-(4-methoxyphenyl)but-2-ene-1,4-dione]
–	100 to 1000	10 to 100	–	COc1ccc(C(=O)/C=C/C(=O)N2C[C@H]3CN(C(=O)C[C@@H]4N=C(c5ccc(Cl)cc5)c5c(sc(C)c5C)-n5c(C)nnc54)[C@H]3C2)cc1 [Compound 212, (E)-1-((1S,5R)-6-(2-((S)-4-(4-chlorophenyl)-2,3,9-trimethyl-6H-thieno[3,2-f][1,2,4]triazolo[4,3-a][1,4]diazepin-6-yl)acetyl)-3,6-diazabicyclo[3.2.0]heptan-3-yl)-4-(4-methoxyphenyl)but-2-ene-1,4-dione]
–	–	> 5000	> 5000	Cc1sc2c(c1C)C(c1ccc(Cl)cc1)=N[C@@H](CC(=O)N[C@H]1C[C@H](NC(=O)/C=C/C(=O)N3CCOCC3)C1)c1nnc(C)n1-2 [Compound 250, (E)-N-((1S,3r)-3-(2-((S)-4-(4-chlorophenyl)-2,3,9-trimethyl-6H-thieno[3,2-f][1,2,4]triazolo[4,3-a][1,4]diazepin-6-yl)acetamido)cyclobutyl)-4-morpholino-4-oxobut-2-enamide]
–	–	> 5000	> 5000	Cc1sc2c(c1C)C(c1ccc(Cl)cc1)=N[C@@H](CC(=O)NC1CC(NC(=O)/C=C/C(=O)N3CC4(COC4)C3)C1)c1nnc(C)n1-2 (stereo partly drawn) [Compound 253, (S,E)-N-(3-(2-(4-(4-chlorophenyl)-2,3,9-trimethyl-6H-thieno[3,2-f][1,2,4]triazolo[4,3-a][1,4]diazepin-6-yl)acetamido)cyclobutyl)-4-oxo-4-(2-oxa-6-azaspiro[3.3]heptan-6-yl)but-2-enamide]
–	–	< 10	< 10	Cc1sc2c(c1C)C(c1ccc(Cl)cc1)=N[C@@H](CC(=O)N1CCN(C(=O)/C=C/C(=O)c3ccc4c(c3)OCC4)CC1)c1nnc(C)n1-2 [Compound 208, (S,E)-1-(4-(2-(4-(4-chlorophenyl)-2,3,9-trimethyl-6H-thieno[3,2-f][1,2,4]triazolo[4,3-a][1,4]diazepin-6-yl)acetyl)piperazin-1-yl)-4-(2,3-dihydrobenzofuran-6-yl)but-2-ene-1,4-dione]
